In general, melting point refers to the temperature, or range, at which the solid turns liquid.

This note sets out measurements from patent publication US8063048B2, “Acetylenyl-pyrazolo-pyrimidine derivatives” (Hoffmann-La Roche Inc., priority 2005, dated 2011).

`O=S(=O)(NC(CO)(CO)CO)c1cncc(C#Cc2cnn3c(C(F)(F)F)cc(-c4ccc(C(F)(F)F)cc4)nc23)c1` [Example 22, 5-[7-Trifluoromethyl-5-(4-trifluoromethyl-phenyl)-pyrazolo[1,5-a]pyrimidin-3-ylethynyl]-pyridine-3-sulfonic acid (2-hydroxy-1,1-bis-hydroxymethyl-ethyl)-amide] displayed a melting point of 230 to 232 °C.

As to `FC(F)(F)c1ccc(-c2cc(C(F)(F)F)n3ncc(C#Cc4ccccc4)c3n2)cc1` [Example 62, 3-Phenylethynyl-7-trifluoromethyl-5-(4-trifluoromethyl-phenyl)-pyrazolo[1,5-a]pyrimidine], the melting point fell in the range of 144 to 145 °C.

`Nc1ncc(C#Cc2cnn3c(C(F)(F)F)cc(-c4ccc(C(F)(F)F)cc4)nc23)cn1` [Example 205, 5-[7-Trifluoromethyl-5-(4-trifluoromethyl-phenyl)-pyrazolo[1,5-a]pyrimidin-3-ylethynyl]-pyrimidin-2-ylamine] had a melting point of 255 to 256 °C. Under `O=S(=O)(NCc1ccncc1)c1ccc(C#Cc2cnn3c(C(F)F)cc(-c4ccc(C(F)(F)F)cc4)nc23)s1` [Example 277, 5-[7-Difluoromethyl-5-(4-trifluoromethyl-phenyl)-pyrazolo[1,5-a]pyrimidin-3-ylethynyl]-thiophene-2-sulfonic acid (pyridin-4-ylmethyl)-amide] stands 141 °C; under `FC(F)(F)c1ccc(-c2cc(C(F)(F)F)n3ncc(C#Cc4cnc(Cl)nc4)c3n2)cc1` [Example 182, 3-(2-Chloro-pyrimidin-5-ylethynyl)-7-trifluoromethyl-5-(4-trifluoromethyl-phenyl)-pyrazolo[1,5-a]pyrimidine], 157 to 159 °C; under `Nc1ccc(C#Cc2cnc3c(C4CC4)cc(-c4ccc(Cl)cc4)cn23)cn1` [Example 233, 5-[6-(4-Chloro-phenyl)-8-cyclopropyl-imidazo[1,2-a]pyridin-3-ylethynyl]-pyridin-2-ylamine], 246 °C.

With `NS(=O)(=O)c1cc(C#Cc2ncn3c(C(F)F)cc(-c4ccc(C(F)(F)F)cc4)nc23)c(F)cc1F` [Example 274, 5-[4-Difluoromethyl-2-(4-trifluoromethyl-phenyl)-imidazo[1,5-a]pyrimidin-8-ylethynyl]-2,4-difluoro-benzenesulfonamide], the melting point was found to be 149 °C. Under `Cc1cc(CNS(=O)(=O)c2ccc(C#Cc3cnn4c(C(F)(F)F)cc(-c5ccc(C(F)(F)F)cc5)nc34)s2)cc(C)n1` [Example 283, 5-[7-Trifluoromethyl-5-(4-trifluoromethyl-phenyl)-pyrazolo[1,5-a]pyrimidin-3-ylethynyl]-thiophene-2-sulfonic acid (2,6-dimethyl-pyridin-4-ylmethyl)-amide] stands 200 °C; under `OCCNc1ccc(C#Cc2cnn3c(C(F)(F)F)cc(-c4ccc(C(F)(F)F)cc4)nc23)cn1` [Example 200, 2-{5-[7-Trifluoromethyl-5-(4-trifluoromethyl-phenyl)-pyrazolo[1,5-a]pyrimidin-3-ylethynyl]-pyridin-2-ylamino}-ethanol], 202 to 203 °C; under `O=S(=O)(NC(CO)CO)c1ccc(C#Cc2cnn3c(C(F)F)cc(-c4cccc(C(F)(F)F)c4)nc23)s1` [Example 265, 5-[7-Difluoromethyl-5-(3-trifluoromethyl-phenyl)-pyrazolo[1,5-a]pyrimidin-3-ylethynyl]-thiophene-2-sulfonic acid (2-hydroxy-1-hydroxymethyl-ethyl)-amide], 153 °C. Under `CC(C)(O)c1cc(-c2ccc(Cl)cc2)nc2c(C#Cc3ccc(S(N)(=O)=O)cc3)cnn12` [Example 153, 4-[5-(4-Chloro-phenyl)-7-(1-hydroxy-1-methyl-ethyl)-pyrazolo[1,5-a]pyrimidin-3-ylethynyl]-benzenesulfonamide] stands 267 to 269 °C.
